According to PubChem BioAssay AID179 (DTP/NCI, 2004):
Calls of active or inactive are those of the source.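 Rule for the calls: active = compounds giving half or more protection of infected cells from virus-caused growth loss, again on retest; inactive = the rest.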 Where a SMILES comes first, the peptide text is derived from it.

Test system: CEM cells HIV-1 protection, formazan growth assay
Test: NCI AIDS Antiviral Assay
Settings: for IC50: measured here: growth of uninfected CEM cells
Outline: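 CEM (human) cells, HIV-1 infected vs uninfected, 5-point dosing, formazan growth read-out. Retest threshold 50% protection.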

Structure (SMILES) | EC50 [µM] | IC50 [µM] | outcome
O=C1C2C3CC(C4C5C=CC(C5)C34)C2C2C3CC(C12)C1C2C=CC(C2)C31 (stereo not drawn) | > 28.8 | > 28.8 | –
Cc1cc(C)c(-n2c(-c3ccc(Br)cc3)cs/c2=N\N=C2C=C(C(C)(C)C)C(=O)C(C(C)(C)C)=C2)c(C)c1 | > 2.45 | > 2.45 | –
S=c1[nH]c(=S)c2nc(Nc3ccccc3)sc2[nH]1 | > 617 | > 617 | –
CCCCCc1nnc2n1N=C(c1ccc(Cl)cc1)CS2 | > 200 | > 200 | –
CCCOCN1COCN=C1NC#N | > 447 | 417 | –
Cn1c(=O)c2c(nc(NCCCCl)n2CC(=O)NCCCCl)n(C)c1=O | > 200 | > 200 | –
O=S(=O)(O)SCCCNCCCCCCNCCCSS(=O)(=O)O | > 200 | 129 | –
COc1cc(C(=O)C/C(CCC(=O)Nc2ccc(Cl)cc2C)=N/NC(=O)C(N)=O)ccc1O | – | – | inactive
O=C1NCN(c2ccccc2)C12CCN(CC1COc3ccccc3O1)CC2 (stereo not drawn) | > 200 | > 200 | –
O=S1(=O)NNC(=NCc2ccc(F)cc2)c2ccccc21 | – | – | inactive
O=S1c2ccccc2S(=O)c2ccccc21 (stereo not drawn) | > 200 | > 200 | –
CC(C)(C)OC(=O)NCC(=O)NCC(=O)NCC(=O)NCC(=O)O (HELM PEPTIDE1{[CC(C)(C)OC(=O)[*:2]].G.G.G.G}$$$$V2.0) | > 724 | > 724 | –
CCN1CCC(O)(/C=C/c2ccc(Cl)cc2)C(C(=O)/C=C/c2ccc(Cl)cc2)C1 (stereo not drawn) | > 21.4 | > 21.4 | –
O=C1CSC(=S)N1c1ccc2c(c1)OCO2 | > 200 | 79.4 | –
COc1ccc(Br)cc1-c1cc(Br)ccc1OC | > 200 | 12.6 | –
O=c1cc(NCc2ccncc2)[nH]c(=O)[nH]1 | – | – | inactive
CN1C(=O)C(C)(C)C2(SC(C)(C)C2(C)C)N(C)C1=S (stereo not drawn) | > 24 | > 24 | –
COC(=O)[C@@H]1Cc2ccc(OC)c(c2)OCCC(=O)N1 | > 200 | > 200 | –
COC(=O)C(CCCCNC(=O)CNC(=O)OCc1ccccc1)NC(=O)C(CCCCNC(=O)CNC(=O)OCc1ccccc1)NC(=O)OCc1ccccc1 (stereo not drawn) | > 100 | 66.1 | –
NCCN.NCCN.O=C([O-])[O-].O=C([O-])[O-].[Co+3] | – | – | inactive
COc1ccc(/C=C2\SC(c3ccc(OC)cc3)N(NC(=O)Cc3ccccc3)C2=O)cc1 (stereo not drawn) | > 15.5 | > 15.5 | –
CC(C)C1N2CCCCC2[C@@H]2c3[nH]c4ccccc4c3CCN12 (stereo partly drawn) | > 81.3 | > 81.3 | –
NC(=S)N/N=C1/CCCC2CCCC[C@@H]12 (stereo partly drawn) | > 200 | > 200 | –

Structure (SMILES) | EC50 [µM] | IC50 [µM] | outcome
COc1ccc(NC(=O)CC(=O)N/N=C/c2ccc(N(CCC#N)S(=O)(=O)c3ccccc3)cc2)cc1 | > 251 | > 251 | –
COc1cc(N)ccc1Nc1c2ccccc2nc2ccccc12 | > 200 | 1.02 | –
Brc1ccc(-c2cc3c(cc2C2SCCS2)OCO3)cc1 | > 67.6 | > 67.6 | –
Cc1cccc2c1OC(=O)C1CNCOC21 (stereo not drawn) | > 200 | 33.1 | –
C/C=C/C(C#N)O[Si](C)(C)C (stereo not drawn) | – | – | inactive
CC1(C)OCC(C2OC(OC(=O)c3ccc(C(F)(F)F)cc3)C3OC(C)(C)OC23)O1 (stereo not drawn) | – | – | inactive
N#Cc1ccccc1-c1nc2c3c(c(N)ccc3n1)C(=O)c1ccccc1-2 | > 200 | 40.7 | –
N#Cc1nc(CCCN2C(=O)c3ccccc3C2=O)oc1N | > 200 | > 200 | –
COc1ccc(-c2c(N)cnc(C(=O)O)c2C)c(O)c1OC | – | – | inactive
CCOC(=O)C1(C)C2=CC=C(O2)C(C)(C)C2=CC=C(O2)C(C)(C)C2=CC=C(O2)C(C)(C)C2=CC=C1O2 | – | – | inactive
C[C@]12CCC3[C@@H](CC[C@@H]4c5nonc5CC[C@]34C)C1CC[C@@H]2O (stereo partly drawn) | > 214 | > 214 | –
CSC1=Nc2ccccc2N=C(N2CCCC2)C1 | 4.47 | > 200 | –
CC(=O)Nc1cc(S(=O)(=O)O)cc2c(N=Nc3ccc(C(=O)Nc4ccc(N=Nc5ccc(S(=O)(=O)O)cc5)cc4)cc3)c(S(=O)(=O)O)cc(O)c12 | – | – | inactive
COc1cc(-c2ccccc2)cn2c1nc1ccccc12 | > 200 | 11.5 | –
CCN(CC)CCOC(NC(C)=O)(c1ccccc1)c1ccccc1 | > 200 | > 200 | –
CCN(CC)CC1CN=C(N)O1 (stereo not drawn) | > 200 | > 200 | –
O=C(O)/C=C/c1ccc[c]([Sb](=[O])([OH])[OH])c1 | 2.82 | > 200 | –
CCCCCCCCCCCCCCCCP(=O)(O)OP(=O)(O)OCC1OC(n2ccc(N)nc2=O)C(O)C1O (stereo not drawn) | > 200 | – | –
O=[N+]([O-])c1ccc2cnn(CN3CCCCC3)c2c1 | > 200 | 89.1 | –
CC(=O)NC1C(OCc2ccccc2)OC(COC(=O)CCCCCCCCCCNC(=O)CCNc2ccc([N+](=O)[O-])c3[nH]c4ccc(O)cc4c(=O)c23)C(O)C1OC(C)C(=O)N[C@H](C(=O)N[C@H](CCC(=O)O)C(N)=O)C(C)C (stereo partly drawn) | > 224 | 87.1 | –
N#C/C(=C\c1ccc(O)c(O)c1)C(=O)NCCCCCCCCCCNC(=O)/C(C#N)=C/c1ccc(O)c(O)c1 | > 200 | 2.75 | –
S=C1N(c2ccc(Br)cc2)C2=Nc3ccccc3SC(=C2N=Nc2ccccc2Cl)N1c1ccc(Cl)cc1 | > 34.7 | 6.76 | –
Cc1ccc(/C=N/Nc2cc(C)c3ccccc3n2)s1 | > 200 | 10.7 | –

Structure (SMILES) | EC50 [µM] | IC50 [µM] | outcome
CC(CN(C)C)/C(=N\Nc1ccccc1)c1ccccc1 (stereo not drawn) | – | – | inactive
COP(=O)(OC)C(N)Cc1c[nH]c2ccccc12 (stereo not drawn) | > 200 | > 200 | –
O=C(c1ccc(Cl)cc1)c1ccc(OCCSCCCCCCCCCCSCCOc2ccc(C(=O)c3ccc(Cl)cc3)cc2)cc1 | > 13.8 | > 13.8 | –
Nc1nc(SCCc2ccccc2)nc2nc3c(c(-c4ccccc4)c12)CCCC3 | > 200 | > 200 | –
CC1CC2NC(C)CC3NC(C)CC(N1)N32 (stereo not drawn) | > 794 | > 794 | –
COc1ccc(C(=O)NC(=S)Nc2ccccc2)cc1 | > 34.7 | > 34.7 | –
Cc1cc(=O)[nH]c2c1C(=O)c1c(C)cc(=O)n(C)c1C2=O | > 2 | 0.257 | –
O=C1CNC(=O)c2ncn(C3OC(CO)C(O)C3O)c2N1 (stereo not drawn) | > 240 | > 240 | –
CC(=O)Oc1c(OC(C)=O)c(-c2ccc(O)c(O)c2)c(O)c(O)c1-c1ccc(O)cc1 | > 200 | 27.5 | –
CN1CCC2(CC1)C(C#N)C(=O)NC(=O)C2C#N (stereo not drawn) | > 339 | > 339 | –
O=[N+]([O-])c1ccc2c(c1)N([O-])C1(CCCCC1)[N+]2=O | > 200 | 3.98 | –
O=C1Nc2ccccc2N2C(=O)CCC12 (stereo not drawn) | > 1230 | 617 | –
COc1ccccc1/C=C/C(=O)C(C)(C)C | > 120 | 69.2 | –
CC(=O)C(N=Nc1nccs1)C(C)=O | > 200 | 55 | –
O=C1OC(=O)c2c(O)cc(O)c(=O)cc21 | > 331 | 209 | –
N=C(N)c1ccc(OCCCCCOc2ccc(C(=N)N)cc2)cc1 | > 20.4 | 1.29 | –
N#Cc1ccc(N2CCOCC2)cc1 | 195 | > 200 | –
CCCCCCCCCCCCCC(=O)OCC1OC(OC)C(NC(=O)N(CCCl)N=O)C(O)C1O (stereo not drawn) | > 18.6 | 12 | –
[N-]=[N+]=NC1=C(c2ccccc2)C(=O)c2cccc3cccc1c23 | > 200 | 7.76 | –
CCC(=O)CC(=O)CCC(=O)Nc1cc(C)ccc1C | – | – | inactive
O=C1C=C(C(O)CCO)C(=O)c2c(O)ccc(O)c21 (stereo not drawn) | – | – | inactive
CC(C)=CCN1CC(C)Cn2c(=S)[nH]c3cccc1c32 (stereo not drawn) | 1.17 | > 100 | –
CC(=O)N1CC(O)(c2ccccc2)CSc2ccccc21 (stereo not drawn) | > 107 | > 107 | –

Structure (SMILES) | EC50 [µM] | IC50 [µM] | outcome
CC(=O)N1C(=O)C2(NCCCN2)c2ccccc21 | > 40.7 | > 40.7 | –
Cc1cc(Cl)ccc1NC(=O)CC1SC(N)=NC1=O (stereo not drawn) | > 832 | > 832 | –
CC(=O)Nc1ccccc1S(=O)c1ccccc1 (stereo not drawn) | > 229 | > 229 | –
CN(C)C[C@@H]1C2C=CC(C2)[C@@H]1CO (stereo partly drawn) | > 490 | > 490 | –
COc1ccc(NC(=O)C2C(=O)N(c3ccc(OC)cc3)C(=O)/C2=N\N)cc1 (stereo not drawn) | > 1.45 | > 1.45 | –
CC(C)c1cc(C(C)C)c(B(c2ccccc2)c2ccccc2)c(C(C)C)c1B(c1ccccc1)c1ccccc1 | > 100 | > 100 | –
CCCN(CCC)CCCOC(=O)c1ccc2oc3ccc(C(=O)OCCCN(CCC)CCC)cc3c2c1 | > 112 | 6.61 | –
CCN=C(NC(=O)c1c(Cl)cccc1Cl)SCSC(=NCC)NC(=O)c1c(Cl)cccc1Cl | > 200 | 170 | –
CC1OC(CC(=O)O)Cc2c1c(O)c1c(O)cc(-c3cc(=O)c4c(=O)c5c(c(=O)c=4c3=O)CC(CC(=O)O)OC5C)c(O)c1c2O (stereo not drawn) | – | – | inactive
COc1ccc(N=Nc2cc(OC)c(N=Nc3c(O)c4ccccc4[nH]c3=O)cc2OC)cc1 | > 100 | 15.5 | –
CN(C)CCC(CCN(C)C)=NOC(=O)c1ccccc1 | > 692 | > 692 | –
O=C(CN(C(=O)OC12CC3CC(CC(C3)C1)C2)C(=O)OC12CC3CC(CC(C3)C1)C2)Oc1ccc([N+](=O)[O-])cc1 | > 200 | 9.77 | –
Oc1ccc(-c2nc(-c3cccnc3)c(-c3ccc(Cl)cc3)[nH]2)cc1O | > 200 | 13.8 | –
O=C(O)c1ccccc1Sc1ccccc1[N+](=O)[O-] | – | – | inactive
O=C1OC2(c3ccccc31)c1ccccc1-c1ccccc12 | > 66.1 | > 66.1 | –
S=c1nnn(C2CCCN2)[nH]1 (stereo not drawn) | > 200 | > 200 | –
CC1CCOC(Sc2ccccc2)C1 (stereo not drawn) | – | – | inactive
O=c1c2cc(Br)ccc2oc2ccc(Br)cc12 | – | – | inactive
COC(=O)C1CCC(=O)N1C(c1ccc2c(c1)OCO2)c1ccc2c(c1)OCO2 (stereo not drawn) | > 200 | 148 | –
O=C(CC(=O)Nc1ccccc1)Nc1ccccc1 | > 102 | > 102 | –
Cc1nc2ccccc2c2c(N)cccc12 | > 200 | > 200 | –
